These results are taken from US20250243174A1, “ANTITUMORAL COMPOUNDS” (PHARMA MAR, S.A., priority 2021, published 2025).

The test system of one series is PSN-1. Kind of series: SRB colorimetric cytotoxicity assay, PSN-1. In kind it is cell-based. The conditions noted are these: Homo sapiens, read-out: GI50 (M) PSN-1. The source says:
(§1) The aim of this assay is to evaluate the in vitro cytostatic (ability to delay or arrest tumor cell growth) or cytotoxic (ability to kill tumor cells) activity of the samples being tested.
(§2) A colorimetric assay, using sulforhodamine B (SRB) reaction has been adapted to provide a quantitative measurement of cell growth and viability (using the technique developed by Skehan et al., J. Natl. Cancer Inst. 1990 and following the protocol detailed in V. Vichai and K. Kirtikara (2006) Nature Protoc. 1, 1112-1116.)
(§3) This form of assay employs 96-well cell culture microplates. All the cell lines used in this study were obtained from the American Type Culture Collection (ATCC), unless otherwise indicated, and derive from different types of human cancer.
(§4) Cells were maintained in Dulbecco's Modified Eagle Medium (DMEM) (for A549, HT-29 and MDA-MB-231) or RPMI (for PSN-1) supplemented with 10% Fetal Bovine Serum (FBS), 2 mM L-glutamine, 100 U/mL penicillin and 100 U/mL streptomycin at 37° C., 5% CO2 and 98% humidity. For the experiments, cells were harvested from subconfluent cultures using trypsinization and resuspended in fresh medium before counting and plating.
(§5) Cells were seeded in 96 well microtiter plates, at 5×10^3 cells per well in aliquots of 150 μL, and allowed to attach to the plate surface for 18 hours (overnight) in drug free medium. After that, one control (untreated) plate of each cell line was fixed (as described below) and used for time zero reference value. Culture plates were then treated with test compounds (50 μL aliquots of 4× concentrated compound stock solutions made in complete culture medium) using ten serial dilutions (concentrations ranging from […]) and triplicate cultures (final concentration of DMSO being 1%). After 72 hours treatment, the antitumor effect was measured by using the SRB methodology: Briefly, cells were washed twice with PBS, fixed for 15 min in 1% glutaraldehyde solution at room temperature, rinsed twice in PBS, and stained in 0.4% SRB solution for 30 min at room temperature. Cells were then rinsed several times with 1% acetic acid solution and air-dried at room temperature. SRB was then extracted in 10 mM trizma base solution and the absorbance measured in an automated spectrophotometric plate reader at 490 nm. Effects on cell growth and survival were estimated by applying the NCI algorithm (Boyd M R and Paull K D. Drug Dev. Res. 1995, 34, 91-104).
(§6) Using the mean±SD of triplicates, a dose-response curve was automatically generated using nonlinear regression analysis to a 4-parameter logistic curve. Three reference parameters were calculated (NCI algorithm) by automatic interpolation: GI50=compound concentration that produces […] cell growth inhibition, as compared to control cultures.

Another series relates to HT29. Kind of series: SRB colorimetric cytotoxicity assay, HT29. The conditions noted are these: Homo sapiens, read-out: GI50 (M) HT29. The format is cell-based.
From the text: as §1, §2, §3, §4, §5, §6

The subject of a further series is HGC-27 xenografts. Kind of series: Example 6, gastric xenograft model HGC-27. The conditions noted are these: for mean body weight reduction: Day 2, compound 2 2.0, compound 3 1.0, PM060184 16 mg/kg; for TV, median (IQR) / Median survival time: iv Q7dx3; for TV, median (IQR): high dose: PM060184 16, Comp. 2 2, Comp. 3 1 mg/kg; for mean time frame with tumor remission: high dose: compound 2 2.0, compound 3 1.0, PM060184 16 mg/kg, last observed day 63; for animals in complete tumor remission status: highest dose: compound 2 2.0, compound 3 1.0 mg/kg; for antitumor activity compared to PM060184-treated group at 16 mg/kg: once treatments were stopped (days 28, 35), 2 at 2 mg/kg, 3 at 1 mg/kg. The format is in vivo. On the procedure:
Female athymic nu/nu mice (Harlan Laboratories Models, S.L. Barcelona, Spain or Envigo, Spain) were utilized for all experiments. Animal were housed in individually ventilated cages Sealsafe® Plus, Techniplast S.P.A.), up to ten per cage on a 12-hour light-dark cycle at 21-23° C. and 40-60% humidity. Mice were allowed free access to irradiated standard rodent diet (Tecklad 2914C) and sterilized water. Animals were acclimated for at least 5 days prior to tumor implantation with a tumor cell suspension.
HGC27 cells were maintained in vitro at 37° C. with 5% CO2 in Iscove's Modified Dulbecco's Medium (Sigma Aldrich, Co). Culture cells were passage every 3 to 5 days on reaching confluence. Each animal was subcutaneously implanted (on the right flank using 26G needle and a 1 cc syringe) at 4-6 weeks of age with 5×10^6 HGC-27 cells suspended in 0.05 mL of a solution consisting of 50% Matrigel® (Corning Incorporated Life Sciences), 50% medium without serum or antibiotics.
All treatments were intravenously administered on a weekly basis at their MTD, ¼ MTD and 1/16 MTD (high, medium and low dose).
Briefly: • 4 to 6 week-old athymic nu/nu female mice were subcutaneously implanted with tumor cells growing in culture. • When tumors reached a certain volume, tumor bearing animals (N=8-10/group) were randomly allocated into treatment groups. • Tumor dimensions and body weights were recorded 2-3 times per week starting from the first day of treatment (Day 0). Treatments producing >20% lethality and/or 20% net body weight loss were considered toxic. Tumor volume was calculated using the equation (a·b^2)/2, where a and b were the longest and shortest diameters, respectively. Animals were euthanized when their tumors reached ca. 2,000 mm^3 and/or severe necrosis was seen. • Median was calculated for tumor volume on each measurement day. • Antitumor effect was assessed comparing tumor volume data from groups following the 1st, 2nd, 3rd study weeks, or more depending on the case, using a two-tailed Mann-Whitney U test. The data are presented as medians and interquartile range (IQR). • Complete tumor regression (CR) was defined when tumor volume<63 mm^3 for 2 or more consecutive measurements. • Treatment tolerability was assessed by monitoring body weight evolution, clinical signs of systemic toxicity as well as evidences of local damage at the injection site.
PM060184 was provided in the form of freeze-dried vials of lyophilized product. Each vial was reconstituted with water for infusion to a concentration of 2.5 mg/mL.
Compounds 2 and 3 were provided in the powder form and were solubilized with hydroxy-propyl-β-cyclodextrin (HPβCD), reaching a concentration of 1 mg/ml or 0.2 mg/ml, respectively. Placebo was provided in the form of lyophilised cake containing 1.2 g of hydroxy-propyl-β-cyclodextrin (HPβCD) which was reconstituted with water for infusion.
In these experiments, compounds 2, 3 and PM060184, as well as placebo, were intravenously administered once per week for 3 consecutive weeks, on Days 0, 7 and 14, whenever it was possible.
The experiment was carried out as previously explained. When tumors reached ca. 165-175 mm^3, tumor bearing animals (N=8/group) were randomly allocated into the following treatment groups:
Treatments were initiated on Day 0.

Setting [1] is: high dose: PM060184 16.0, Comp. 2 2.0, Comp. 3 1.0 mg/kg, ud = group not reached mortality.
[2] abbreviates: low dose: PM060184 1.0, Comp. 2 0.125, Comp. 3 0.0625 mg/kg.
[3] abbreviates: medium dose: PM060184 4.0, Comp. 2 0.5, Comp. 3 0.25 mg/kg.

Where two headings read alike, the source gives them in different places.

Usually GI50 stands for the concentration that inhibits growth by half.

`COC1=CC[C@@H]([C@@H](C)/C=C(C)/C=C\C=C/C(=O)N[C@H](C(=O)N/C=C\C[C@H](CC=C(C)C)OC(N)=O)C(C)(C)C)OC1=O` [Compound 3]: the GI50 in the series with PSN-1 (PSN1, 72 h) was found to be 1.43e-10 M; with HT29 (HT-29, 72 h), 2.22e-11 M. The “mean body weight reduction” value in the series on HGC-27 xenografts is “ca. −13.1%”. Besides, the “TV, median (IQR)” value in the series on HGC-27 xenografts (Day 7) is reported as 366.0 (300.1-479.8) mm3; in the series on HGC-27 xenografts (Day 14) it was 177.1 (142.3-256.0) mm3; with HGC-27 xenografts (Day 21), 75.0 (65.6-84.4) mm3; in the series on HGC-27 xenografts (Day 28) it was 66.7 (38.2-73.7) mm3; in the series on HGC-27 xenografts (Day 35), 27.3 (21.4-41.4) mm3. Moreover, the Median survival time result in the series on HGC-27 xenografts (setting [1]) is recorded as “ud”; with HGC-27 xenografts (setting [2]), 12 days; with HGC-27 xenografts (setting [3]), 30 days. For the same molecule, the “mean time frame with tumor remission” value in the series with HGC-27 xenografts was “higher than 31.5 days”. In addition, in the series on HGC-27 xenografts, the “animals in complete tumor remission status” value worked out at 100%. Besides, the “antitumor activity compared to PM060184-treated group at 16 mg/kg” value in the series with HGC-27 xenografts was “big difference, in terms of antitumor activity, statistically significant”.

Consider `C/C=C\C[C@@H](C/C=C\NC(=O)[C@@H](NC(=O)\C=C/C=C\C(C)=C\[C@H](C)[C@@H]1CC=C(OC)C(=O)O1)C(C)(C)C)OC(N)=O` [PM060184, reference compound], for which the GI50 came out at 1.87e-10 M in the series with PSN-1 (PSN1, 72 hours treatment, SRB) and 8.3e-11 M with HT29 (HT-29, 72 hours treatment, SRB). The “mean body weight reduction” value in the series on HGC-27 xenografts was “ca. −4.1%”. For the same molecule, the “TV, median (IQR)” value with HGC-27 xenografts (Day 7) was 250.7 (212.8-433.0) mm3; in the series on HGC-27 xenografts (Day 14) it was 124.8 (102.8-213.2) mm3; in the series with HGC-27 xenografts (Day 21), 88.5 (68.2-118.3) mm3; in the series with HGC-27 xenografts (Day 28), 114.4 (63.7-155.1) mm3; in the series on HGC-27 xenografts (Day 35), 267.3 (100.4-414.0) mm3. Besides, in the series with HGC-27 xenografts (PM060184 16 mg/kg (high-dose)), the “animals that reached a complete remission (number out of eight)” value is recorded as “three out of eight”. The Median survival time with HGC-27 xenografts (setting [1]) turned out to be 56 days; in the series on HGC-27 xenografts (setting [2]), 15 days; in the series with HGC-27 xenografts (setting [3]), 27 days. The “mean time frame with tumor remission” value in the series on HGC-27 xenografts worked out at 18 days.

With `COC1=CC[C@@H]([C@@H](C)/C=C(C)/C=C\C=C/C(=O)N[C@H](C(=O)N/C=C\C[C@H](C/C=C(\C)F)OC(N)=O)C(C)(C)C)OC1=O` [Compound 2], the GI50 was found to be 2.27e-11 M in the series on PSN-1 (PSN1, 72 h) and 1.31e-11 M in the series with HT29 (HT-29, 72 h). Moreover, in the series on HGC-27 xenografts, the “mean body weight reduction” value is listed as “ca. −13.1%”. Moreover, the “TV, median (IQR)” value is 313.6 (237.3-482.4) mm3 in the series on HGC-27 xenografts (Day 7); 143.2 (96.1-223.6) mm3 in the series with HGC-27 xenografts (Day 14); 75.0 (51.6-75.0) mm3 in the series on HGC-27 xenografts (Day 21); 42.5 (37.0-63.9) mm3 with HGC-27 xenografts (Day 28); 32.9 (20.4-36.6) mm3 with HGC-27 xenografts (Day 35). For the same molecule, the Median survival time entry with HGC-27 xenografts (setting [1]) is “ud”; in the series on HGC-27 xenografts (setting [2]), 14 days; with HGC-27 xenografts (setting [3]) it was 38.5 days. The “mean time frame with tumor remission” value with HGC-27 xenografts is given as “higher than 29.1 days”. For the same molecule, the “animals in complete tumor remission status” value with HGC-27 xenografts is 100%. Besides, the “antitumor activity compared to PM060184-treated group at 16 mg/kg” value with HGC-27 xenografts is recorded as “big difference, in terms of antitumor activity, statistically significant”.
